How the values were obtained:
[1] = Description: Another preferred criterion for improving the bioavailability of the active agent is establishing a pH range for the composition which provides the highest solubility. It will be apparent to the skilled artisan that the pH of the composition will depend upon the concentration and the salt form of the active agent in the composition.
[2] = Ocular comfort / stinging upon topical administration to the eye
Description: It is well known that acidic solutions alone cause ocular stinging.

[3] = in vivo

Row | Compound | solubility compared with the free base [1] | solubility versus theoretical solubility predicted by the Handerson-Hasselbach relationship [1] | ocular stinging / comfort ([2]; in vivo) | ocular stinging / comfort ([2]; ophthalmic solution administered topically to the eye) | aqueous humor (AqH) drug level, 0.5% HPMC versus 0% HPMC [3] | retina drug level, 0.5% HPMC versus 0% HPMC [3]
1 | tandospirone citrate [tandospirone citrate salt] | dramatically less than that of the free base | decreased substantially | stings |  |  | 
2 | O=C1[C@@H]2[C@H]3CC[C@H](C3)[C@@H]2C(=O)N1CCCCN1CCN(c2ncccn2)CC1 [Tandospirone, tandospirone] |  | does not exhibit this solubility dip |  | more comfortable | ~3 fold | 0.5% HPMC ˜0% HPMC

Reference: US20100160342A1, “Compositions of Topical Ocular Solutions to Deliver Effective Concentrations of Active Agent to the Posterior Segment of the Eye” (ALCON RESEARCH, LTD., priority 2008, published 2010)
